Results from ChEMBL document CHEMBL4118120, “Identification of a novel selective small-molecule inhibitor of protein arginine methyltransferase 5 (PRMT5) by virtual screening, resynthesis and biological evaluations” (Bioorg Med Chem Lett, 2018).
Calls of active or inactive are those of the source. The rule behind the calls is not given here.

How the values were obtained:
[1] = target: T1, PRMT5/MEP50 complex (Homo sapiens) (UniProt O14744+Q9BQA1); assay: (§1) Inhibition of recombinant human N-terminal FLAG-tagged PRMT5 (2 to end residues) /human N-terminal His-tagged MEP50 (2 to end residues) expressed in HEK293F cells at 50 uM using substrate pretreated for 15 mins followed by substrate and [3H]-SAM addition measured after 60 mins by scintillation proximity assay relative to control; type: cell-based
PRMT5/MEP50 complex [2] = target: T2, PRMT5/MEP50 complex (Homo sapiens, UniProt O14744); assay: as §1, with “cells” for “cells at 50 uM”, “assay” for “assay relative to control”; type: cell-based
T2 sequence (O14744 whole entry): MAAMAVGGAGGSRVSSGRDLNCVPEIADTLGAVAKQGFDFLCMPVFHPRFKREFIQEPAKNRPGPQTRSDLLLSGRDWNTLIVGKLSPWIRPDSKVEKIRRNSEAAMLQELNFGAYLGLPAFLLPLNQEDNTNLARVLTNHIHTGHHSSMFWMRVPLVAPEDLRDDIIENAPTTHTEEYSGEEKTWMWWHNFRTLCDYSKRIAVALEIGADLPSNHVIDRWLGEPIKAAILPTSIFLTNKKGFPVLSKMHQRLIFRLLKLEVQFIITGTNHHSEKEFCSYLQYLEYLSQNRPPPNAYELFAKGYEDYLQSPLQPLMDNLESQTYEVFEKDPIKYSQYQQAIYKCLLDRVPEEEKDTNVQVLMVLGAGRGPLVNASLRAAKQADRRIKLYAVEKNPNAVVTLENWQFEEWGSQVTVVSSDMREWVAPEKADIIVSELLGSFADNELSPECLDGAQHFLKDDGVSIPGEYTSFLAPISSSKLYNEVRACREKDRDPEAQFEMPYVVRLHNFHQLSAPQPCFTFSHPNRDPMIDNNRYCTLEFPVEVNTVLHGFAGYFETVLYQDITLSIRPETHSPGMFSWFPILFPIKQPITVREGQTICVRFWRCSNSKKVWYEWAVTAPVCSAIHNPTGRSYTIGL
T2 sequence (Q9BQA1 whole entry, further chain): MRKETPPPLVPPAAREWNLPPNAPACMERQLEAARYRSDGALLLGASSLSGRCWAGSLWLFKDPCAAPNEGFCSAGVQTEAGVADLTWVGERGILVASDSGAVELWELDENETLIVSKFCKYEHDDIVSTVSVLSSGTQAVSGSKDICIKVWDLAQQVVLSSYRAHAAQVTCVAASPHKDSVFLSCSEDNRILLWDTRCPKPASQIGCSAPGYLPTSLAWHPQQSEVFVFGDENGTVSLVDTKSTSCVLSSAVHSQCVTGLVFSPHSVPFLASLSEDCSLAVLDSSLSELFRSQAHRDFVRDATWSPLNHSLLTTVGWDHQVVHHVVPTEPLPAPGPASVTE

[3] = target: T1, PRMT5/MEP50 complex (Homo sapiens); assay: as §1, with “at 100” for “at 50”; type: cell-based
PRMT5/MEP50 complex [4] = target: T2, PRMT5/MEP50 complex; assay: Inhibition of recombinant human N-terminal FLAG-tagged PRMT5 (2 to end residues) /human N-terminal His-tagged MEP50 (2 to end residues) expressed in HEK293F cells using biotinylated H4 derived peptide as substrate pretreated for 15 mins followed by substrate and [3H]-SAM addition measured after 60 mins by liquid scintillation counting method
PRMT5/MEP50 complex [5] = target: T2, PRMT5/MEP50 complex; assay: Inhibition of recombinant human N-terminal FLAG-tagged PRMT5 (2 to end residues) /human N-terminal His-tagged MEP50 (2 to end residues) expressed in HEK293F cells using substrate measured after 60 mins by Alphalisa assay; type: cell-based
[6] = target: Protein arginine N-methyltransferase 1 (Homo sapiens, UniProt Q99873); assay: Inhibition of recombinant human N-terminal GST-tagged PRMT1 (2 to end residues) expressed in baculovirus infected Sf9 insect cells using peptide substrate pretreated for 15 mins followed by substrate/[3H]-SAM addition measured after 60 mins by scintillation proximity assay
Chain of Protein arginine N-methyltransferase 1 (Q99873 whole entry): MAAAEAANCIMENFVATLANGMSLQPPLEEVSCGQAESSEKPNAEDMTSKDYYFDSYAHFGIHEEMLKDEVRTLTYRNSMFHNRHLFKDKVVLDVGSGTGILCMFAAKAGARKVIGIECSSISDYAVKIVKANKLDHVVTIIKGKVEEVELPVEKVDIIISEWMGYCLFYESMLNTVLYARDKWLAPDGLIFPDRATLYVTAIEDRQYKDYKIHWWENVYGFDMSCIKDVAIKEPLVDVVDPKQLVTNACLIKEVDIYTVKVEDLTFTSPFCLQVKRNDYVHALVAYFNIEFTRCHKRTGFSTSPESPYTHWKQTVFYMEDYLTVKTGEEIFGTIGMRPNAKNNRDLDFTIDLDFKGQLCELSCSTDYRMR

[7] = target: T3, Histone-arginine methyltransferase CARM1 (Homo sapiens, UniProt Q86X55); assay: Inhibition of recombinant human N-terminal FLAG-tagged CARM1 (2 to end residues) expressed in HEK293F cells pretreated for 15 mins followed by substrate addition measured after 60 mins by Alphalisa assay; type: cell-based
T3 sequence (Q86X55 whole entry): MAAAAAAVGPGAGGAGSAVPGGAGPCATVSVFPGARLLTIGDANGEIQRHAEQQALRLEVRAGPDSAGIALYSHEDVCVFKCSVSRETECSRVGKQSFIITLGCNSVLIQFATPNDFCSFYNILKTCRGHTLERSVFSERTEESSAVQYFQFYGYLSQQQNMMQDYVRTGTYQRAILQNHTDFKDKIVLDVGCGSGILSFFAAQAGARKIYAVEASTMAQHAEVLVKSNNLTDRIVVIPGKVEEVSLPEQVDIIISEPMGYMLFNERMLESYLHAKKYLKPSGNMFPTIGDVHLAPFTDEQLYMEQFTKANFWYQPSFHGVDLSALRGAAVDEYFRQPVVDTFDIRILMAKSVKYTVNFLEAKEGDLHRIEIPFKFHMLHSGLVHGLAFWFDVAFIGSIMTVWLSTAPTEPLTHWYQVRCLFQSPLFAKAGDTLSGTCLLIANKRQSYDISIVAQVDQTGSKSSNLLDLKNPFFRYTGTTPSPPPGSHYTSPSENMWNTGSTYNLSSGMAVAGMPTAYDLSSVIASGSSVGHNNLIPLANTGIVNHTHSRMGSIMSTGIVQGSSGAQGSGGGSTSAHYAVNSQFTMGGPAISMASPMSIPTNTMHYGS

MV4-11 = assay: Antiproliferative activity against human MV411 cells after 4 days by Celltiiter-Glo luminescence cell viability assay; details: MV4-11, 96 h
[8] = target: Protein arginine N-methyltransferase 5 (Homo sapiens) (UniProt O14744); assay: Inhibition of PRMT5 in human MV411 cells assessed as upregulation of Gas1 expression at 30 uM by SYBR green dye based RT-qPCR analysis; type: cell-based
Chain of Protein arginine N-methyltransferase 5 (Homo sapiens) (O14744 whole entry): as the sequence (O14744 whole entry) above

| SMILES | inhibition [1] | also measured |
| --- | --- | --- |
| CCOc1ccc(-c2csc(Nc3ccc(Cl)cc3)n2)cc1[N+](=O)[O-] | 25% | – |
| COc1cc(Br)c(Br)c(/C=N/c2cccc(-c3nc4ccccc4[nH]3)c2)c1O | – | IC50 (PRMT5/MEP50 complex [2]): 48 µM; inhibition [3]: > 50% |
| COc1ccc(Br)cc1C(=O)NC(=S)Nc1nc(-c2ccccc2)cs1 | 8% | – |
| CCCOc1ccc(Nc2nc(-c3cc4cc(OC)ccc4oc3=O)cs2)cc1 | 7% | – |
| CC[n+]1c(-c2ccccc2)csc1Nc1ccc(O)c(C(=O)O)c1 | 7% | – |
| OC(CNCc1c(OCc2ccccc2)ccc2ccccc12)c1ccccc1 (configuration not stated) | – | IC50 (PRMT5/MEP50 complex [4]): 2.8 µM |
| COc1ccc(Nc2nc(-c3ccc(OCc4ccc(Br)cc4)cc3)cs2)cc1 | 0% | – |
| COc1ccc(Nc2nc(-c3ccc(OCc4ccc([N+](=O)[O-])cc4)cc3)cs2)cc1 | 0% | – |
| O=C(O)COc1ccc(Br)cc1-c1csc(Nc2ccc(Br)cc2)n1 | 61% | IC50 (PRMT5/MEP50 complex [2]): 44 µM |
| NC(=O)N/N=C/c1ccc(-c2ccc(Cl)cc2)o1 | – | IC50 (PRMT5/MEP50 complex [5]): 0.57 µM |
| COc1ccccc1Nc1nc(-c2cc3cc(Br)ccc3oc2=O)cs1 | 9% | – |
| COc1ccc(-c2csc(NC(=S)NC(=O)c3ccc(C(C)(C)C)cc3)n2)cc1Br | 9% | – |
| CCOc1cc(C(=O)Nc2nc(-c3ccc(C)cc3C)cs2)cc(OCC)c1OCC | 0% | – |
| CCN(CC)CCCNC(=O)c1ccc(OC)c([N+](=O)[O-])c1 | – | IC50 (PRMT5/MEP50 complex [2]): 42 µM; inhibition [3]: > 50% |
| COc1ccc(Nc2nc(-c3cc4ccccc4o3)cs2)cc1 | 10% | – |

Now from value to molecule, other results behind:

| inhibition [1] | SMILES | also measured |
| --- | --- | --- |
| 3.5% | COc1ccc(Cl)cc1C(=O)Nc1nc(-c2ccc(C)c(C)c2)cs1 | – |
| 6% | COc1ccccc1Nc1nc(-c2ccc3ccccc3c2)cs1 | – |
| 3.5% | COc1ccc(-c2csc(NC(=O)c3ccccc3Cl)n2)cc1C | – |
| 28.1% | COc1ccc(-c2csc(Nc3ccc(Cl)c(Cl)c3)n2)cc1 | – |
| 26.4% | COc1ccc(-c2csc(Nc3ccc(C)c(Cl)c3)n2)cc1F | – |
| 71% | Cc1cc(-c2csc(Nc3ccc(O)c(C(=O)O)c3)n2)ccc1F | IC50 (PRMT5/MEP50 complex [2]): 22 µM |
| 23% | COc1ccc(OC)c(Nc2nc(-c3ccc4ccccc4c3)cs2)c1 | – |
| 20% | COc1ccc(OC)c(Nc2nc(-c3ccc(Cl)cc3Cl)cs2)c1 | – |
| 95% | COc1ccc(-c2csc(Nc3ccc(O)c(C(=O)O)c3)n2)cc1C | IC50 [6]: > 100 µM; IC50 [7]: > 100 µM; IC50 (PRMT5/MEP50 complex [2]): 14 µM; EC50 (MV4-11): 22.5 µM; inhibition [8]: Active |
| 21% | COc1ccc(-c2csc(NC3=CS(=O)(=O)c4ccccc43)n2)cc1OC | – |
| 0% | CCOc1ccccc1Nc1nc(-c2cc3cc(OC)ccc3oc2=O)cs1 | – |
| 27.4% | COc1cccc(Nc2nc(-c3ccc(OC)c(Br)c3)cs2)c1 | – |
| 80% | Cc1ccc(C)c(-c2csc(Nc3ccc(O)c(C(=O)O)c3)n2)c1 | IC50 (PRMT5/MEP50 complex [2]): 35 µM; inhibition [3]: > 50% |
| 33% | COc1cc(Cl)c(OC)c(Nc2nc(-c3ccc(C)cc3)cs2)c1 | – |
| 25% | COc1ccc(-c2csc(Nc3ccc4c(c3)OCO4)n2)cc1Br | – |
| 24% | COc1cc(Nc2nc(-c3cc(C)ccc3C)cs2)c(OC)cc1Cl | – |
